US20170320848A1, “COMPOUNDS FOR USE IN ANTHELMINTHIC TREATMENT” (Bayer Animal Health GMBH, priority 2014, published 2017)

Assay: Measurement of LogP values by HPLC on reversed phase columns (EEC directive 79/831 Annex V.A8)
Format: physicochemical
Settings: acidic range, 0.1% formic acid in water and acetonitrile as eluent

Point of comparison: `O=C(NCC(F)(F)c1ccc(-c2ccc(F)cc2)cc1Cl)c1ccccc1Br` [Example 58], “logP (HCOOH)[a]” value 4.05. Against it:
- O=C(NCC(F)(F)c1ccc(-c2ccc(F)cc2)cc1Cl)c1ccccc1Cl [Example 59] — within 0.2 log units, 4.0
- O=C(NCC(F)(F)c1c(F)cc(-c2cccc(C(F)F)c2)cc1F)c1ccccc1C(F)(F)F [Example 82] — lower, 3.83
- CN1CCN(c2ccc(-c3ccc(C(F)(F)CNC(=O)c4ccccc4C(F)(F)F)c(Cl)c3)cc2)CC1 [Example 84] — lower, 1.84
- CC(=O)N1CCN(c2ccc(-c3ccc(C(F)(F)CNC(=O)c4ccccc4C(F)(F)F)c(Cl)c3)cc2)CC1 [Example 104] — lower, 3.17
- O=C(NCC(F)(F)c1ccc(-c2cc(F)c(F)c(F)c2)cc1Cl)c1ccccc1I [Example 114] — higher, 4.34
- O=C(NCC(F)(F)c1c(F)cc(-c2ccc(C(F)(F)F)cc2)cc1F)c1ccccc1C(F)(F)F [Example 86] — higher, 4.38
- Cc1cc(-c2cc(Cl)c(F)c(Cl)c2)ccc1C(F)(F)CNC(=O)c1ccccc1C(F)(F)F [Example 128] — higher, 5.08
- O=C(NCC(F)(F)c1ccc(-c2ccc3c(c2)OC(F)(F)O3)cc1Cl)c1ccccc1C(F)(F)F [Example 71] — higher, 4.57
- Cc1cc(-c2cccc(C(F)F)c2)ccc1C(F)(F)CNC(=O)c1ccccc1C(F)(F)F [Example 90] — within 0.2 log units, 4.07
- N#Cc1ccc(-c2cc(F)c(C(F)(F)CNC(=O)c3ccccc3C(F)(F)F)c(F)c2)cc1 [Example 46] — lower, 3.53
- O=C(NCC(F)(F)c1ccc(-c2cccc(C(F)(F)F)c2)cc1Cl)c1ccccc1C(F)(F)F [Example 67] — higher, 4.55
- N#Cc1cc(-c2ccc(C(F)(F)F)cc2)ccc1C(F)(F)CNC(=O)c1ccccc1C(F)(F)F [Example 85] — within 0.2 log units, 4.07
- O=C(NCC(F)(F)c1ccc(-c2cccc(OC(F)(F)F)c2)cc1Cl)c1ccccc1C(F)(F)F [Example 42] — higher, 4.61
- O=C(NCC(F)(F)c1ccc(-c2cc(F)c(OC(F)F)c(F)c2)cc1Cl)c1ccccc1C(F)(F)F [Example 66] — within 0.2 log units, 4.20
- COc1cc(-c2cc(F)c(F)c(F)c2)ccc1C(F)(F)CNC(=O)c1ccccc1C(F)(F)F [Example 118] — within 0.2 log units, 4.23
- O=C(NCC(F)(F)c1ccc(-c2ccc(S(=O)(=O)C(F)(F)F)cc2)cc1Cl)c1ccccc1C(F)(F)F [Example 45] — higher, 4.32
- O=C(NCC(F)(F)c1ccc(-c2ccc([S+]([O-])C(F)(F)F)cc2)cc1Cl)c1ccccc1C(F)(F)F (centres unmarked) [Example 56] — within 0.2 log units, 3.87
- O=C(NCC(F)(F)c1ccc(-c2ccc(N3CCOCC3)cc2)cc1Cl)c1ccccc1C(F)(F)F [Example 75] — lower, 3.83
- Cc1cc(-c2ccc(OC(F)(F)F)cc2)ccc1C(F)(F)CNC(=O)c1ccccc1C(F)(F)F [Example 76] — higher, 4.68
- O=C(NCC(F)(F)c1ccc(-c2cc(F)c(Cl)c(F)c2)cc1Cl)c1ccccc1C(F)(F)F [Example 110] — higher, 4.77
- O=C(NCC(F)(F)c1ccc(-c2ccc(N3CCOCC3)c(F)c2)cc1Cl)c1ccccc1C(F)(F)F [Example 113] — the same, 4.05
- O=C(NCC(F)(F)c1ccc(-c2cc(F)c(F)c(F)c2)cc1Cl)c1nccnc1C(F)(F)F [Example 111] — the same, 4.05
- COc1cc(-c2cccc(C(F)F)c2)ccc1C(F)(F)CNC(=O)c1ccccc1C(F)(F)F [Example 92] — lower, 3.81
- N#Cc1ccc(-c2ccc(C(F)(F)CNC(=O)c3ccccc3C(F)(F)F)c(Cl)c2)c(F)c1 [Example 93] — lower, 3.76
- N#Cc1cc(-c2ccc(C(F)(F)CNC(=O)c3ccccc3C(F)(F)F)c(Cl)c2)ccc1F [Example 96] — lower, 3.81

Same assay, conditions: reversed phase HPLC columns, acidic range, 0.1% formic acid in water and acetonitrile as eluent, read-out: logP (HCOOH)[a]

Point of comparison: `NCC(F)(F)c1ccc(-c2ccc(F)cc2)cc1Cl` [Example VII-1, 2-[2-chloro-4-(4-fluorophenyl)phenyl]-2,2-difluoro-ethanamine], chromatographic logP 1.35. Against it:
- CS(=O)(=O)c1ccc(-c2ccc(C(F)(F)CNC(=O)c3ccccc3C(F)(F)F)c(Cl)c2)cc1 [Example 24] — higher, 2.99

Same assay, conditions: reversed phase HPLC columns, neutral range, 0.001 molar ammonium acetate solution in water and acetonitrile as eluent, read-out: LogP[b]

Compound `NCC(F)(F)c1ccc(-c2ccc(F)cc2)cc1Cl` [Example VII-1, 2-[2-chloro-4-(4-fluorophenyl)phenyl]-2,2-difluoro-ethanamine] has a chromatographic logP of 3.1.
